Measured values taken from PubChem BioAssay (NCI).
Several values for one entry are separate records, joined by “and”; a condition that tells them apart may be missing. Identical values can stand only once.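 Growth conditions: 96-well plates. Treatment: test compound, 48 hours, 5 concentrations. Analysis: linear interpolation between bracketing concentrations; unreached endpoints set to highest concentration. GI50 marks 50% less growth. TGI denotes the concentration required for complete inhibition of growth.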

What was measured:
Experiment in all cases: NCI-60 cell line screen, 48 h
ACHN renal = tested on: ACHN renal
CAKI-1 renal = tested on: CAKI-1 renal
DMS 273 small cell lung = tested on: DMS 273 small cell lung
KM20L2 colon = tested on: KM20L2 colon
LOX IMVI melanoma = tested on: LOX IMVI melanoma
NCI-H23 lung = tested on: NCI-H23 lung
OVCAR-3 ovarian = tested on: OVCAR-3 ovarian
OVCAR-5 ovarian = tested on: OVCAR-5 ovarian
SF-295 CNS = tested on: SF-295 CNS
SNB-75 CNS = tested on: SNB-75 CNS
DU-145 prostate = tested on: DU-145 prostate

In the case of N#C/C(=C\c1ccc(O)c(O)c1)c1c(C#N)c(N)nn1-c1ccccc1, the TGI (ACHN renal) is reported as 26900 nM, the TGI (CAKI-1 renal) is reported as 9050 nM and the TGI (DMS 273 small cell lung) is reported as 18500 nM. The TGI (KM20L2 colon) was greater than 100000 nM, the TGI (LOX IMVI melanoma) was 44000 nM and the TGI (NCI-H23 lung) was 25300 nM. For the same molecule, the TGI (OVCAR-3 ovarian) was 6630 nM, the TGI (OVCAR-5 ovarian) was greater than 100000 nM and the TGI (SF-295 CNS) was 47700 nM. The TGI (SNB-75 CNS) was greater than 100000 nM.
With CCN(CC)CCNc1c2ccccc2nc2cccc([N+](=O)[O-])c12 the TGI (ACHN renal) was 18.4 nM and 46.8 nM, the TGI (CAKI-1 renal) was 25.4 nM and 72.1 nM and the TGI (DMS 273 small cell lung) was 78.7 nM. The TGI (DU-145 prostate) was 14.6 nM, the TGI (KM20L2 colon) was 55.3 nM and the GI50 (LOX IMVI melanoma) was 36.3 nM. For the same molecule, the TGI (NCI-H23 lung) was 18.8 nM, the GI50 (OVCAR-3 ovarian) was 24.4 nM and the TGI (OVCAR-3 ovarian) was 24.1 nM and 62.1 nM. The TGI (OVCAR-5 ovarian) was 30.2 nM, the GI50 (SF-295 CNS) was 15 nM and the TGI (SF-295 CNS) was 34.2 nM and 64.3 nM. For the same molecule, the TGI (SNB-75 CNS) was 34.7 nM.
Molecule O=C(Nc1ccccc1[N+](=O)[O-])/C(=N/Nc1cccc(Cl)c1)c1c(O)c2ccccc2oc1=O has a TGI (ACHN renal) greater than 100000 nM, a TGI (CAKI-1 renal) greater than 100000 nM and a TGI (DMS 273 small cell lung) greater than 100000 nM. It also gave a TGI (KM20L2 colon) greater than 100000 nM, a TGI (LOX IMVI melanoma) greater than 100000 nM and a TGI (NCI-H23 lung) greater than 100000 nM. The TGI (OVCAR-3 ovarian) was greater than 100000 nM, the TGI (OVCAR-5 ovarian) was greater than 100000 nM and the TGI (SF-295 CNS) was greater than 100000 nM. For the same molecule, the TGI (SNB-75 CNS) was greater than 100000 nM.
